Measurements reported in ChEMBL document CHEMBL5537154, “Smart glypican-3-targeting peptide-chlorin e6 conjugates for targeted photodynamic therapy of hepatocellular carcinoma” (Eur J Med Chem, 2024).
Calls of active or inactive are those of the source. The calls are words filed in the database; no cut-off is given here.

Assays:
[1] = Drug uptake in human MCF7 cells incubated for 2 hrs by fluorescence based assay; type: ADME, cell-based; conditions: mcf7, 2 h
[2] = […] assessed as decrease in fluorescence intensity of DMA; type: functional
[3] = Toxicity in BALB/C nude mouse model xenografted with human HepG2 cells assessed as damage in kidney at 1 uM/kg, iv administered every two days for 21 days along with 250 mW/cm2 light irradiation at 660 nm for 10 mins at 1 hr post-compound administration by H and E staining based analysis; type: organism-based; conditions: in vivo, 505.17 h, time 505.166 hrs
[4] = system: HepG2; experiment: Induction of ROS generation in human HepG2 cells at 10 uM incubated for 24 hrs by DCFH-DA probe based flow cytometry; type: functional, cell-based
[5] = system: Huh-7; experiment: Antiproliferative activity against human Huh-7 cells under dark condition by CCK8 assay; type: functional, cell-based
[6] = Toxicity in BALB/C nude mouse model xenografted with human HepG2 cells assessed as change in lung weight at 1 uM/kg, iv administered every two days for 21 days along with 250 mW/cm2 light irradiation at 660 nm for 10 mins at 1 hr post-compound administration; type: organism-based; conditions: in vivo, 505.17 h, time 505.166 hrs
[7] = system: HepG2; experiment: Antiproliferative activity against human HepG2 cells under 10 J/cm2 light irradiation at 660 nm by CCK8 assay; type: functional, cell-based; conditions: HepG2, light or radiation study
[8] = system: HepG2; experiment: Induction of ROS generation in human HepG2 cells at 10 uM preincubated for 24 hrs followed by DCFH-DA probe addition and further incubated under dark condition for 20 mins prior and 20 mins post- light irradiation of 10 J/cm2 at 660 nm by flow cytometry; type: functional, cell-based; conditions: time 24.66 hrs
[9] = Toxicity in BALB/C nude mouse model xenografted with human HepG2 cells assessed as change in liver weight at 1 uM/kg, iv administered every two days for 21 days along with 250 mW/cm2 light irradiation at 660 nm for 10 mins at 1 hr post-compound administration; type: organism-based; conditions: in vivo, 505.17 h, time 505.166 hrs
[10] = system: HeLa; experiment: Antiproliferative activity against human HeLa cells under dark condition by CCK8 assay; type: functional, cell-based
[11] = Toxicity in BALB/C nude mouse model xenografted with human HepG2 cells assessed as damage in lung at 1 uM/kg, iv administered every two days for 21 days along with 250 mW/cm2 light irradiation at 660 nm for 10 mins at 1 hr post-compound administration by H and E staining based analysis; type: organism-based; conditions: in vivo, 505.17 h, time 505.166 hrs
[12] = Aggregation property of compound in PBS; type: physicochemical; conditions: buffer
[13] = Drug uptake in human HUVEC cells at 500 nM incubated for 0.5 hrs by flow cytometry; type: ADME, cell-based; conditions: 0.5 µM
[14] = Toxicity in BALB/C nude mouse model xenografted with human HepG2 cells assessed as damage in spleen at 1 uM/kg, iv administered every two days for 21 days along with 250 mW/cm2 light irradiation at 660 nm for 10 mins at 1 hr post-compound administration by H and E staining based analysis; type: organism-based; conditions: in vivo, 505.17 h, time 505.166 hrs
[15] = system: HepG2; experiment: Antiproliferative activity against human HepG2 cells under dark condition by CCK8 assay; type: functional, cell-based
[16] = system: MCF7; experiment: Antitumor activity against human MCF7 cells xenografted in BALB/C nude mouse model assessed as decrease in tumor growth at 1 uM/kg, iv administered every two days for 21 days along with 250 mW/cm2 light irradiation at 660 nm for 10 mins at 1 hr post-compound administration; type: functional, organism-based; conditions: time 505.166 hrs
[17] = system: Huh-7; experiment: Antiproliferative activity against human Huh-7 cells under 10 J/cm2 light irradiation at 660 nm by CCK8 assay; type: functional, cell-based; conditions: Huh-7, light or radiation study
[18] = Toxicity in BALB/C nude mouse model xenografted with human HepG2 cells assessed as body weight loss at 1 uM/kg, iv administered every two days for 21 days along with 250 mW/cm2 light irradiation at 660 nm for 10 mins at 1 hr post-compound administration; type: organism-based; conditions: in vivo, 505.17 h, time 505.166 hrs
[19] = Drug distribution in tumor of BALB/C nude mouse model xenografted with human HepG2 cells at 1 to 2 uM/kg, iv measured for 1 to 4 hrs by fluorescence imaging analysis; type: ADME, organism-based, Neoplasm; conditions: in vivo, dose lower 1 µM/Kg, time lower 1 hrs, dose upper 2 µM/Kg, time upper 4 hrs
[20] = Antiproliferative activity against human HUVEC cells under 10 J/cm2 light irradiation at 660 nm by CCK8 assay; type: toxicity, cell-based
[21] = system: HeLa; experiment: Antiproliferative activity against human HeLa cells under 10 J/cm2 light irradiation at 660 nm by CCK8 assay; type: functional, cell-based; conditions: light or radiation study
[22] = target: Glypican-3 (Homo sapiens, UniProt P51654); experiment: Binding affinity to GPC3 (unknown origin) assessed as dissociation constant by fluorescence polarization assay
Chain of Glypican-3 (P51654 25-358 limits assumed): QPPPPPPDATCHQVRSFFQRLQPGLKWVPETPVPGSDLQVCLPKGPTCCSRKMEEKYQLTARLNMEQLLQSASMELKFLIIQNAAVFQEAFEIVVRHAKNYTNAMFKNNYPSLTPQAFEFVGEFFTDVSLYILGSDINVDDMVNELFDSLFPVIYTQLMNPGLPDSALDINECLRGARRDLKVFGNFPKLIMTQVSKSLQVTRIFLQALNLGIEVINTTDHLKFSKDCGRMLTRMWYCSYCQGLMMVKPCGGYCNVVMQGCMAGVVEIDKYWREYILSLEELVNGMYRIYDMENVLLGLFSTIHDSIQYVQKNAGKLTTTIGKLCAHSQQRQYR
Chain of Glypican-3 (P51654 359-554 limits assumed): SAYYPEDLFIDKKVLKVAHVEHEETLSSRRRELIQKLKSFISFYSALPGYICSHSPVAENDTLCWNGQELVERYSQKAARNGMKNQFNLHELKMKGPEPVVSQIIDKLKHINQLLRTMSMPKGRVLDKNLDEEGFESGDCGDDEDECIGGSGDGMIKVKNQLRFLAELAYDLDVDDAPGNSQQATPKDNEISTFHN

[23] = Toxicity in BALB/C nude mouse model xenografted with human HepG2 cells assessed as damage in heart at 1 uM/kg, iv administered every two days for 21 days along with 250 mW/cm2 light irradiation at 660 nm for 10 mins at 1 hr post-compound administration by H and E staining based analysis; type: organism-based; conditions: in vivo, 505.17 h, time 505.166 hrs
[24] = system: MCF7; experiment: Antiproliferative activity against human MCF7 cells under dark condition by CCK8 assay; type: functional, cell-based
[25] = Toxicity in BALB/C nude mouse model xenografted with human HepG2 cells assessed as change in kidney weight at 1 uM/kg, iv administered every two days for 21 days along with 250 mW/cm2 light irradiation at 660 nm for 10 mins at 1 hr post-compound administration; type: organism-based; conditions: in vivo, 505.17 h, time 505.166 hrs
[26] = Drug distribution in BALB/C nude mouse model xenografted with human HepG2 cells at 1 to 2 uM/kg, iv measured after 1 hr by fluorescence imaging analysis; type: ADME, organism-based; conditions: in vivo, dose 1-2 µM/Kg
[27] = Toxicity in BALB/C nude mouse model xenografted with human HepG2 cells assessed as change in heart weight at 1 uM/kg, iv administered every two days for 21 days along with 250 mW/cm2 light irradiation at 660 nm for 10 mins at 1 hr post-compound administration; type: organism-based; conditions: in vivo, 505.17 h, time 505.166 hrs
[28] = Toxicity in BALB/C nude mouse model xenografted with human HepG2 cells assessed as damage in liver at 1 uM/kg, iv administered every two days for 21 days along with 250 mW/cm2 light irradiation at 660 nm for 10 mins at 1 hr post-compound administration by H and E staining based analysis; type: organism-based; conditions: in vivo, 505.17 h, time 505.166 hrs
[29] = Toxicity in BALB/C nude mouse model xenografted with human HepG2 cells assessed as change in spleen weight at 1 uM/kg, iv administered every two days for 21 days along with 250 mW/cm2 light irradiation at 660 nm for 10 mins at 1 hr post-compound administration; type: organism-based; conditions: in vivo, 505.17 h, time 505.166 hrs
[30] = Drug distribution in tumor of BALB/C nude mouse model xenografted with human HepG2 cells at 1 to 2 uM/kg, iv measured after 2 hrs by fluorescence imaging analysis; type: ADME, organism-based, Neoplasm; conditions: in vivo, dose 1-2 µM/Kg
[31] = system: HepG2; experiment: Antitumor activity in human HepG2 cells xenografted in BALB/C nude mouse model assessed as tumor growth inhibition at 1 uM/kg, iv administered every two days for 21 days along with 250 mW/cm2 light irradiation at 660 nm for 10 mins at 1 hr post-compound administration relative to control; type: functional; conditions: time 505.166 hrs, 505.17 h, at 1 µmol/kg
[32] = Toxicity in BALB/C nude mouse model xenografted with human HepG2 cells assessed as drug tolerance at 1 uM/kg, iv administered every two days for 21 days along with 250 mW/cm2 light irradiation at 660 nm for 10 mins at 1 hr post-compound administration; type: organism-based; conditions: in vivo, 505.17 h, time 505.166 hrs
[33] = Antiproliferative activity against human HUVEC cells under dark condition by CCK8 assay; type: toxicity, cell-based
[34] = system: MCF7; experiment: Antiproliferative activity against human MCF7 cells under 10 J/cm2 light irradiation at 660 nm by CCK8 assay; type: functional, cell-based; conditions: MCF7, light or radiation study

Which Drug uptake [1] does the source give for `C=Cc1c(C)c2cc3nc(c(CC(=O)O)c4[nH]c(cc5nc(cc1[nH]2)C(C)=C5CC)c(C)c4C(=O)O)[C@@H](CCC(=O)O)[C@@H]3C` [CHLORIN E6] here?
Its Drug uptake is “Active”.

And the Activity [2]?
Its Activity is “Active”.

And the Activity [3]?
Its Activity is “Non-Toxic”.

What about the Activity [4] of the same molecule?
The Activity was “inactive”.

What about the IC50 [5] of the same molecule?
Its IC50 is over 100 µM.

What about the Activity [6] of the same molecule?
Its Activity is “Non-Toxic”.

What about the IC50 [7] of the same molecule?
The IC50 was 16 µM.

What about the Activity [8] of the same molecule?
Its Activity is “Active”.

What about the Activity [9] of the same molecule?
Its Activity is “Non-Toxic”.

What about the IC50 [10] of the same molecule?
The IC50 was over 100 µM.

And the Activity [11]?
Its Activity is “Non-Toxic”.

And the Activity [12]?
Its Activity is “Active”.

What about the Drug uptake [13] of the same molecule?
The Drug uptake was “Active”.

What about the Activity [14] of the same molecule?
The Activity was “Non-Toxic”.

What about the IC50 [15] of the same molecule?
The IC50 was over 100 µM.

What about the Activity [16] of the same molecule?
The Activity was “Active”.

What about the IC50 [17] of the same molecule?
Its IC50 is 18 µM.

What about the Activity [18] of the same molecule?
The Activity was “Non-Toxic”.

And the Drug uptake [19]?
The Drug uptake was “Active”.

What about the IC50 [20] of the same molecule?
The IC50 was over 10 µM.

And the IC50 [21]?
Its IC50 is over 10 µM.

What about the Kd [22] of the same molecule?
The Kd was over 10 µM.

What about the Activity [23] of the same molecule?
Its Activity is “Non-Toxic”.

What about the IC50 [24] of the same molecule?
Its IC50 is over 100 µM.

What about the Activity [25] of the same molecule?
Its Activity is “Non-Toxic”.

And the Drug uptake [26]?
Its Drug uptake is “Active”.

And the Activity [27]?
Its Activity is “Non-Toxic”.

And the Activity [28]?
The Activity was “Non-Toxic”.

And the Activity [29]?
The Activity was “Non-Toxic”.

And the Drug uptake [30]?
The Drug uptake was “Not Active”.

What about the TGI [31] of the same molecule?
The TGI was 71.3%.

What about the Activity [32] of the same molecule?
The Activity was “Non-Toxic”.

What about the IC50 [33] of the same molecule?
The IC50 was over 200 µM.

And the IC50 [34]?
Its IC50 is over 10 µM.
